ChEMBL document CHEMBL1201862, “PubChem BioAssay data set” (2004)
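Test compounds were applied to cells in 96-well plates for 48 hours at 5 doses. Here, GI50 denotes the concentration required for 50% inhibition of growth.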 Activity calls are given as the source filed them. No stated cut-off is given here; in the data, active = GI50 up to about 1.1 µM and inactive = higher.

Key:
Test in all cases: NCI-60 cell line screen, 48 h
SNB-78 = test system: SNB-78
DLD-1 = test system: DLD-1
RXF 631 = test system: RXF 631
HOP-18 = test system: HOP-18
M19-MEL = test system: M19-MEL
DMS-273 = test system: DMS-273
XF498 = test system: XF498
DMS-114 = test system: DMS-114
KM-20L2 = test system: KM-20L2

Row | SMILES | GI50 (SNB-78) | GI50 (DLD-1) | GI50 (RXF 631) | GI50 (HOP-18) | GI50 (M19-MEL) | GI50 (DMS-273) | GI50 (XF498) | GI50 (DMS-114) | GI50 (KM-20L2)
1 | COc1ccc2nc(-c3ccccn3)cc(O)c2c1 | 99.3 µM (inactive) | 52.6 µM (inactive) | 85.1 µM (inactive) | 61.7 µM (inactive) | 31.8 µM (inactive) |  |  |  | 
2 | CCCCCCCCCCCCCC(=O)OC(/C=C/C(C)C)C(O)C(O)C(OC)C(=O)NC1CCCCNC1=O (centres undefined) | 2.82 µM (inactive) | 0.637 µM (active) |  | 2.23 µM (inactive) |  | 0.0916 µM (active) | 1.78 µM (inactive) | 0.615 µM (active) | 1.46 µM (inactive)
3 | N/N=c1\c2ccccc2c2cc3c(cc12)/c(=N/N)c1ccccc13 | > 100 µM (inactive) | > 100 µM (inactive) | > 100 µM (inactive) | > 100 µM (inactive) | > 100 µM (inactive) | > 100 µM (inactive) |  | > 100 µM (inactive) | > 100 µM (inactive)
4 | CC(=O)NC1C(OCc2ccccc2)OC(COC(=O)CCCCCCCCCCNC(=O)c2cccc3c(=O)c4ccccc4[nH]c23)C(O)C1OC(C)C(=O)NC(C)C(=O)NC(CCC(N)=O)C(N)=O (centres undefined) | 99.1 µM (inactive) | 95.9 µM (inactive) | 19.5 µM (inactive) | 59 µM (inactive) | 75.5 µM (inactive) | 57.8 µM (inactive) | 38.7 µM (inactive) | 36.3 µM (inactive) | > 100 µM (inactive)
5 | CC(C)C/C(CC(=O)CCC(=O)Nc1ccccc1[N+](=O)[O-])=N\NC(=O)c1cc2ccccc2cc1O |  | 55.2 µM (inactive) | 31.2 µM (inactive) | 21.8 µM (inactive) | 24.2 µM (inactive) |  | 30.7 µM (inactive) | 36.1 µM (inactive) | 32.1 µM (inactive)
6 | S=c1cc(S)c2c(=S)sc3nc4ccccn4c(=S)c3c2s1 | > 100 µM (inactive) | > 100 µM (inactive) |  | > 100 µM (inactive) | 35.5 µM (inactive) | 63.4 µM (inactive) | > 100 µM (inactive) | 7.03 µM (inactive) | 46.3 µM (inactive)
7 | C/C=C(\CCOS(=O)(=O)c1ccc(C)cc1)[Si](C)(C)C | > 100 µM (inactive) | > 100 µM (inactive) | > 100 µM (inactive) | > 100 µM (inactive) | > 100 µM (inactive) | > 100 µM (inactive) | > 100 µM (inactive) | > 100 µM (inactive) | > 100 µM (inactive)
8 | O=c1c2ccccc2nc(-c2ccccc2)n1NC(=S)Nc1ccc(Cl)cc1 |  | > 100 µM (inactive) |  | > 100 µM (inactive) | 52.6 µM (inactive) | > 100 µM (inactive) |  | 34.4 µM (inactive) | 
9 | CCOC(=O)C1C(c2ccc([N+](=O)[O-])cc2)NC(c2ccc([N+](=O)[O-])cc2)C(C(=O)OC)S1(=O)=O (centres undefined) | > 100 µM (inactive) | > 100 µM (inactive) |  | > 100 µM (inactive) | > 100 µM (inactive) | > 100 µM (inactive) | > 100 µM (inactive) | > 100 µM (inactive) | > 100 µM (inactive)
10 | COc1ccc(C2CC(c3cc(C)ccc3O)=NC(N)=N2)cc1 (centres undefined) | > 100 µM (inactive) | > 100 µM (inactive) |  | > 100 µM (inactive) | > 100 µM (inactive) | > 100 µM (inactive) | > 100 µM (inactive) | > 100 µM (inactive) | > 100 µM (inactive)
11 | O=C(CSc1nnc(-c2ccc(/N=C\c3ccc(Cl)cc3)cc2)o1)Nc1ccc(Cl)cc1 | > 100 µM (inactive) |  |  | > 100 µM (inactive) | > 100 µM (inactive) | > 100 µM (inactive) | > 100 µM (inactive) | > 100 µM (inactive) | > 100 µM (inactive)
12 | N#C/C(=C/c1cccnc1)C(=O)c1ccccc1 | > 100 µM (inactive) | > 100 µM (inactive) |  | > 100 µM (inactive) | > 100 µM (inactive) | > 100 µM (inactive) | > 100 µM (inactive) | > 100 µM (inactive) | > 100 µM (inactive)
13 | CCOC12SC(Nc3ccc(C)cc3)=NN1C(=S)N(C)N=C2C (centres undefined) |  | > 100 µM (inactive) |  | > 100 µM (inactive) | > 100 µM (inactive) | > 100 µM (inactive) |  | > 100 µM (inactive) | > 100 µM (inactive)
14 | Cc1ccc([S+]([O-])C(C)C(Cl)c2ccccc2)cc1 (centres undefined) | > 100 µM (inactive) | > 100 µM (inactive) |  | > 100 µM (inactive) | 54.3 µM (inactive) | > 100 µM (inactive) |  | 28.2 µM (inactive) | > 100 µM (inactive)
15 | O=C(COC(=O)c1cccc2c(=O)c3ccccc3[nH]c12)Nc1ccccc1 |  | 65 µM (inactive) | 28.5 µM (inactive) | > 100 µM (inactive) | 33.6 µM (inactive) | 58.1 µM (inactive) | 32.1 µM (inactive) | 22.3 µM (inactive) | 79.6 µM (inactive)
16 | CC(=O)OCC1C(=O)OCC1C(=O)N1Cc2cc3ccccc3nc2C1 (centres undefined) |  | 1.61 µM (inactive) |  | 2.47 µM (inactive) | 8.05 µM (inactive) | 5.09 µM (inactive) | 1.82 µM (inactive) | 13.6 µM (inactive) | 3.84 µM (inactive)
17 | N#Cc1c2ccccc2cn1-c1ccc(F)cc1 |  | 48.8 µM (inactive) |  |  | 37.8 µM (inactive) | > 10 µM (inactive) | 42.2 µM (inactive) | 16.2 µM (inactive) | 31.9 µM (inactive)
18 | CSc1nc(SC)c2c(C(N)=S)n[nH]c2n1 | 31.8 µM (inactive) | 37 µM (inactive) | 32 µM (inactive) |  | 28.2 µM (inactive) | 30 µM (inactive) |  | 30.1 µM (inactive) | 23.1 µM (inactive)
19 | CCOC(=O)/C(=C\c1ccc(N(CCC#N)CCC#N)cc1)NC(=O)c1cc([N+](=O)[O-])ccc1Cl | > 100 µM (inactive) | > 100 µM (inactive) | > 100 µM (inactive) | > 100 µM (inactive) | > 100 µM (inactive) | > 100 µM (inactive) |  | > 100 µM (inactive) | > 100 µM (inactive)
20 | Cc1cc2c(c3nocc13)C(=O)c1ccccc1C2=O |  | > 100 µM (inactive) | > 100 µM (inactive) | > 100 µM (inactive) | > 100 µM (inactive) | > 100 µM (inactive) |  | > 100 µM (inactive) | > 100 µM (inactive)
21 | N#CC12CCC1C1CCCCC12N1CCSCC1 (centres undefined) | > 100 µM (inactive) | > 100 µM (inactive) |  | > 100 µM (inactive) | > 100 µM (inactive) | > 100 µM (inactive) | > 100 µM (inactive) | > 100 µM (inactive) | > 100 µM (inactive)
22 | COc1cc(/C=C/c2ccc(OC)c(OC)c2OC)cc(OC)c1OC | 17.3 µM (inactive) | 18.3 µM (inactive) | 20 µM (inactive) | 17.5 µM (inactive) | 20.2 µM (inactive) | 16.4 µM (inactive) | 25.5 µM (inactive) | 18.2 µM (inactive) | 20.2 µM (inactive)
23 | [N-]=[N+]=NC1C(Br)C(=O)NC(=O)N1[C@H]1C[C@H](O)[C@@H](CO)O1 (some centres undefined) | > 100 µM (inactive) | > 100 µM (inactive) |  |  |  | > 100 µM (inactive) | > 100 µM (inactive) |  | > 100 µM (inactive)
24 | COc1ccc2nc3ccccc3c(NCCCCCN(CCCl)CCCl)c2c1 | 0.277 µM (active) |  |  | 0.306 µM (active) | 0.116 µM (active) | < 0.0365 µM (active) | 0.051 µM (active) | 0.073 µM (active) | 0.0647 µM (active)
